The source made the active and inactive calls. Rule as the data show it, for most assays here: actives have a measured Kd and inactives only a lower limit.
Assays:
[1] = target: Receptor-interacting serine/threonine-protein kinase 3 (Homo sapiens, UniProt Q9Y572)
[2] = target: Tyrosine-protein kinase HCK (Homo sapiens, UniProt P08631)
[3] = target: T1, ATP-dependent 6-phosphofructokinase, platelet type (Homo sapiens, UniProt Q01813)
T1 sequence (Q01813 whole entry): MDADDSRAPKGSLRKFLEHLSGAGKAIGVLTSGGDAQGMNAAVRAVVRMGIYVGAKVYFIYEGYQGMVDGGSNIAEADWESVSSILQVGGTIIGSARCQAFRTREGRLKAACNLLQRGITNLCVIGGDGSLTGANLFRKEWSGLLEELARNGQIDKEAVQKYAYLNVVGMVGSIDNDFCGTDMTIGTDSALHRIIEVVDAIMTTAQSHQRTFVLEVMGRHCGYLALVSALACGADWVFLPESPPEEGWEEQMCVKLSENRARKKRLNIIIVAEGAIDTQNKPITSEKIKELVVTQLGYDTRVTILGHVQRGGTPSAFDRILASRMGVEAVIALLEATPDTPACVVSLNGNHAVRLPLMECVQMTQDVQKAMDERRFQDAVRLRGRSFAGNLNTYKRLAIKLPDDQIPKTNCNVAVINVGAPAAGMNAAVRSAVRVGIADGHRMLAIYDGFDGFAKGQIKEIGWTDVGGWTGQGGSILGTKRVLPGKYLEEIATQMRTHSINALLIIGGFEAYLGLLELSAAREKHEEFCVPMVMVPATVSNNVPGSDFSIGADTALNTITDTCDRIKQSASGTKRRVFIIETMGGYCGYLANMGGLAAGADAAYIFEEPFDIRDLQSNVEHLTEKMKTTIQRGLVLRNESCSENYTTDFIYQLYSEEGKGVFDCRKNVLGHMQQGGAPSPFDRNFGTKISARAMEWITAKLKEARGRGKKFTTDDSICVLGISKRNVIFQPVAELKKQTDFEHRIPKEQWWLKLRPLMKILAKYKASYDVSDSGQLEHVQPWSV

[4] = target: U5 small nuclear ribonucleoprotein 200 kDa helicase (Homo sapiens, UniProt O75643)
Sequence of U5 small nuclear ribonucleoprotein 200 kDa helicase (O75643 whole entry): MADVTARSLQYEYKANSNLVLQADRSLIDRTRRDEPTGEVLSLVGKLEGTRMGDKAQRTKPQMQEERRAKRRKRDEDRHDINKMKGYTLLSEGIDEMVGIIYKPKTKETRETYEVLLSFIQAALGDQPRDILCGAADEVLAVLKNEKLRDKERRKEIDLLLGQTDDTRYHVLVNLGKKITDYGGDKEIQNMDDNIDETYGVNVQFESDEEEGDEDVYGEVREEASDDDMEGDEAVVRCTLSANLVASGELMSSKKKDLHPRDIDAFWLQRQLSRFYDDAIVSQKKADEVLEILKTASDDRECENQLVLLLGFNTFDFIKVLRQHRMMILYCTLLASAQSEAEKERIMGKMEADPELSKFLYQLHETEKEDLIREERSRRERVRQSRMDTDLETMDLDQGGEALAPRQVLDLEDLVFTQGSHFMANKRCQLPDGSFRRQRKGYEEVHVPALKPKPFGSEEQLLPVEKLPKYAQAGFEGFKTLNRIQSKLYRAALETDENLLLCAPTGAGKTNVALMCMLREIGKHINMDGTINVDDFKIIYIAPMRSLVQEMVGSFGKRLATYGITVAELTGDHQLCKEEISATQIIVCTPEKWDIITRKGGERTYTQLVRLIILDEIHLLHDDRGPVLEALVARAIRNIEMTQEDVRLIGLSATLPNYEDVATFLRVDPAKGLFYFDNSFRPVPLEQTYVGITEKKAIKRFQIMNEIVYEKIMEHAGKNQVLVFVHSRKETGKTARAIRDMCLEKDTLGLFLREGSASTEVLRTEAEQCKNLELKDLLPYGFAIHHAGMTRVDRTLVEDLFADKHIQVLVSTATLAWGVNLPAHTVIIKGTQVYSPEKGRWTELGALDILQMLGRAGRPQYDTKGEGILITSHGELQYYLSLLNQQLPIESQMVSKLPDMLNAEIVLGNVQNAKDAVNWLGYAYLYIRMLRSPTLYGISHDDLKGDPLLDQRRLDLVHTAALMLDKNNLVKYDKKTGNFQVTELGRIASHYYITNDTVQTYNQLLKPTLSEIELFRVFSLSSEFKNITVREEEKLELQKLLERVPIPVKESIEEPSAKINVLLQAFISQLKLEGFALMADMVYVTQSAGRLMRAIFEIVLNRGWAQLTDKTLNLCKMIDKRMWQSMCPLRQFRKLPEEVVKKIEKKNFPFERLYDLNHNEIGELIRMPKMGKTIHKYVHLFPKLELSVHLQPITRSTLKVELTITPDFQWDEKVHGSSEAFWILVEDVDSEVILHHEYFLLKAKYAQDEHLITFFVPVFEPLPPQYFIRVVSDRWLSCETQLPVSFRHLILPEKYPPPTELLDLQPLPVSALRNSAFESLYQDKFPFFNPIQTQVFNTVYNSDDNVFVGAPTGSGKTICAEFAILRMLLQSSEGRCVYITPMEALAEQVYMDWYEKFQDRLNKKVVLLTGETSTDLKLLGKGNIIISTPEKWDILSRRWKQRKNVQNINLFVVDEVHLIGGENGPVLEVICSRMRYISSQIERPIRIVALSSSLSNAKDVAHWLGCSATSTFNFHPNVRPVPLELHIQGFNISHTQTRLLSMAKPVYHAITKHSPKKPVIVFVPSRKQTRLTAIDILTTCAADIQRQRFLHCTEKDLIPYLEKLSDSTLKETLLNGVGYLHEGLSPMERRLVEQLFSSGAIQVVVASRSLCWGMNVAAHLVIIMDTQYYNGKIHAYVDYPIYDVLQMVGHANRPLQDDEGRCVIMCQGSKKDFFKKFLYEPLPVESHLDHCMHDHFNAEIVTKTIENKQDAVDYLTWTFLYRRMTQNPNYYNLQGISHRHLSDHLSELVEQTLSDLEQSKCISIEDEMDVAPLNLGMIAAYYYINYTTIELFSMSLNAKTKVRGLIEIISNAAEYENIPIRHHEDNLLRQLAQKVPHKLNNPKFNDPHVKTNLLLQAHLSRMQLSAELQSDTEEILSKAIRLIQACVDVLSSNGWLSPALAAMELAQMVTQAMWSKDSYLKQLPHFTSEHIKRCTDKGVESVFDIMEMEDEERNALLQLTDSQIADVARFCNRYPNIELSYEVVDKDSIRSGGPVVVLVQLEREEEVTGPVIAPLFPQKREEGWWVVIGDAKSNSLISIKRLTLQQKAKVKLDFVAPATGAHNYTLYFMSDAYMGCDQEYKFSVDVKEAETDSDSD

[5] = target: Tyrosine-protein kinase Fer (Homo sapiens, UniProt P16591)
[6] = target: ATP-dependent RNA helicase DDX3X (Homo sapiens, UniProt O00571)
[7] = target: Tyrosine-protein kinase FRK (Homo sapiens, UniProt P42685)
Sequence of Tyrosine-protein kinase FRK (P42685 whole entry): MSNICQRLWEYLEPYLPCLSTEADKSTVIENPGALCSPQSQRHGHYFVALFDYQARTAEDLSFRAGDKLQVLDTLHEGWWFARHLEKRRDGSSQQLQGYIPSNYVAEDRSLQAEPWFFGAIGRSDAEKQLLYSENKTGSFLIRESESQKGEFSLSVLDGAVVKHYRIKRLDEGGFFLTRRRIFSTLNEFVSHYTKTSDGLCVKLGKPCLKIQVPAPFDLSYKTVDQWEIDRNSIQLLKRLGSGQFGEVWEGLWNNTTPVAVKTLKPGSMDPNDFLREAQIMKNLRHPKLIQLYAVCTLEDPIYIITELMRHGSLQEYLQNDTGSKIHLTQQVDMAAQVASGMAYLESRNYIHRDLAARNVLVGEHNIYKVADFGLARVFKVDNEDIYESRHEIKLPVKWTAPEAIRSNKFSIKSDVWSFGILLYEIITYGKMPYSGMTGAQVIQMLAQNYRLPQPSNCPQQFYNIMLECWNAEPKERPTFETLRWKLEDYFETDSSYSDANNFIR

[8] = target: Serine/threonine-protein kinase pim-1 (Homo sapiens, UniProt P11309)
Sequence of Serine/threonine-protein kinase pim-1 (P11309 whole entry): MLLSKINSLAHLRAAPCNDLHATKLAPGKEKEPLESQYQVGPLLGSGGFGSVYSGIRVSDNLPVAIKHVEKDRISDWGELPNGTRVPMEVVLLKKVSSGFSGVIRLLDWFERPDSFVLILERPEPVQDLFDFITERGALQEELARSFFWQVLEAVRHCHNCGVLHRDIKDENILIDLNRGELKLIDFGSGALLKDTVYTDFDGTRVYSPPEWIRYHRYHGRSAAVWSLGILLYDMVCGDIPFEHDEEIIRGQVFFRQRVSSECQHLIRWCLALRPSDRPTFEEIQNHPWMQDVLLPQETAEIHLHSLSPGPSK

[9] = target: T2, Cysteine--tRNA ligase, cytoplasmic (Homo sapiens, UniProt P49589)
T2 sequence (P49589 whole entry): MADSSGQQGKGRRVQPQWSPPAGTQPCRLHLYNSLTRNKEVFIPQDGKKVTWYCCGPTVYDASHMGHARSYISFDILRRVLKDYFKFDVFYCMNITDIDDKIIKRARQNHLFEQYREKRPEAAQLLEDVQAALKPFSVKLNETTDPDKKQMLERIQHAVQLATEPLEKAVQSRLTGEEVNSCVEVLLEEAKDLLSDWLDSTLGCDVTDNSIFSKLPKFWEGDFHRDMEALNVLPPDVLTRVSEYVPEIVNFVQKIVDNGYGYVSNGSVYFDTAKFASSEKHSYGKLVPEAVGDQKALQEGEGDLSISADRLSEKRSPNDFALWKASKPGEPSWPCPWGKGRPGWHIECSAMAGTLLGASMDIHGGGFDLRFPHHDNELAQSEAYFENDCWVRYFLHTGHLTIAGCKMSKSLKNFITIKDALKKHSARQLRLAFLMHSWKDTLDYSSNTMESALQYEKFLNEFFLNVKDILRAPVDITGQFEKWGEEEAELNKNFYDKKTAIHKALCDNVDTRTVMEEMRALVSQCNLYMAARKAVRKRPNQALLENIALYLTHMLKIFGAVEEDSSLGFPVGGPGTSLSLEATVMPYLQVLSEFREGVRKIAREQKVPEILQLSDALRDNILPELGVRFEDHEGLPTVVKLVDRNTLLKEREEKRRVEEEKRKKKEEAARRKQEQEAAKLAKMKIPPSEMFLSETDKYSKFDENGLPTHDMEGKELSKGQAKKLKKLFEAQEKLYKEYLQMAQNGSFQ

[10] = target: Maternal embryonic leucine zipper kinase (Homo sapiens, UniProt Q14680)
Sequence of Maternal embryonic leucine zipper kinase (Q14680 whole entry): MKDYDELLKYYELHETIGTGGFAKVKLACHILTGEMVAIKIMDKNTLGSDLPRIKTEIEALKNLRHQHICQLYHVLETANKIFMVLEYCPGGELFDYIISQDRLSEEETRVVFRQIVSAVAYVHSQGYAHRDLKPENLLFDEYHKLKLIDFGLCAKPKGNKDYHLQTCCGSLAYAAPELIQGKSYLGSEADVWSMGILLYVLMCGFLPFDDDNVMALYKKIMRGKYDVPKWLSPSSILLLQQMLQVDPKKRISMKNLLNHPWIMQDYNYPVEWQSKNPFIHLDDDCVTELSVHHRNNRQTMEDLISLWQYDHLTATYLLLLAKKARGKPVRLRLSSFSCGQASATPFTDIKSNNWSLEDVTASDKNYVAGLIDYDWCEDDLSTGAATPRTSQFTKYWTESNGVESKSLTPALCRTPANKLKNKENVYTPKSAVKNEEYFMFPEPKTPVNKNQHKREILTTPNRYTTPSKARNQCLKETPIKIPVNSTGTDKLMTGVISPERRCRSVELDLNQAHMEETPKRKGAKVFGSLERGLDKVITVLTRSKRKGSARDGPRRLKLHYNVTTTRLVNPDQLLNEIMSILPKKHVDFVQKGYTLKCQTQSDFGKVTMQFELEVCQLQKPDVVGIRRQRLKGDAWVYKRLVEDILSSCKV

[11] = target: T3, Phosphatidylinositol 5-phosphate 4-kinase type-2 gamma (Homo sapiens, UniProt Q8TBX8)
T3 sequence (Q8TBX8 whole entry): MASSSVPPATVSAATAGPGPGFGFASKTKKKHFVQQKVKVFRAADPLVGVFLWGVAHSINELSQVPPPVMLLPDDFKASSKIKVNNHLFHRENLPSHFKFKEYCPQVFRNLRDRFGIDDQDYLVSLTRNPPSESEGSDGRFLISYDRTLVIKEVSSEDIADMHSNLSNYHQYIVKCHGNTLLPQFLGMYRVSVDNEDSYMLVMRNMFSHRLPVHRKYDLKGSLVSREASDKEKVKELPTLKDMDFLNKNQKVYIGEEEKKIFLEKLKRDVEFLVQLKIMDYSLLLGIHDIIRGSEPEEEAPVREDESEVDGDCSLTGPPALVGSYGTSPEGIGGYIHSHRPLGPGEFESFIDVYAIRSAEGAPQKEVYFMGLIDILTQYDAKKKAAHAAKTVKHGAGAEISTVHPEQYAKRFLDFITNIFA

Measured: Kd
Also: in the data inactive means no Kd found up to 30 µM.

Sequence of Receptor-interacting serine/threonine-protein kinase 3 (Q9Y572 whole entry): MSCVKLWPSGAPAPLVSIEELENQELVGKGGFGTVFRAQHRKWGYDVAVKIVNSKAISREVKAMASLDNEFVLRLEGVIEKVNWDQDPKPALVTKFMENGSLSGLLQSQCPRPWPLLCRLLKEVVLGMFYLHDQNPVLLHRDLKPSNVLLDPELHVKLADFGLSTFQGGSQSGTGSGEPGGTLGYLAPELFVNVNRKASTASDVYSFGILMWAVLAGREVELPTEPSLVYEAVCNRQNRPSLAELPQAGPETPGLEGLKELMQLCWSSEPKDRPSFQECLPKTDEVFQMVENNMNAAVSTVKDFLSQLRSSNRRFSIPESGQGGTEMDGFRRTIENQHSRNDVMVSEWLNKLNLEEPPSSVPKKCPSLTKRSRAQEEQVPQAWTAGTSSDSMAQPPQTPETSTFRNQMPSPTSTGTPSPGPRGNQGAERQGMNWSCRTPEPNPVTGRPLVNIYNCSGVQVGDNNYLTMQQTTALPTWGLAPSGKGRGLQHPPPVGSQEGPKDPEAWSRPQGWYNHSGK
Sequence of Tyrosine-protein kinase HCK (P08631 whole entry): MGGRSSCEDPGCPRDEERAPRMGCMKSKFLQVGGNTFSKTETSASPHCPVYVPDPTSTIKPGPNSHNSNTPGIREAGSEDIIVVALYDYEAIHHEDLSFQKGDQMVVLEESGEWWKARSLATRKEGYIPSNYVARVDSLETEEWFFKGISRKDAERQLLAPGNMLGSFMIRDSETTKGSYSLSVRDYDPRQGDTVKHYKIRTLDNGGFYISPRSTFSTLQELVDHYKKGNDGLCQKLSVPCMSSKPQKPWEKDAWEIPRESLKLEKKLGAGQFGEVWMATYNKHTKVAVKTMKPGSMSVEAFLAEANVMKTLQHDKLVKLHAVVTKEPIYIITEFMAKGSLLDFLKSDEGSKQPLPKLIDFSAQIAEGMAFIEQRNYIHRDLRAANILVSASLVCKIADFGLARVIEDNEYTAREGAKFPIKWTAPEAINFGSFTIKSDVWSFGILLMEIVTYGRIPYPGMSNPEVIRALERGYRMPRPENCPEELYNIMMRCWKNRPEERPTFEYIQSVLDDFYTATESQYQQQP

O=S(=O)(c1cccc2c(O)nccc12)N1CCCNCC1 [HYDROXYFASUDIL]
inactive: [1] > 30 µM | [2] > 30 µM | [3] > 30 µM | [4] > 30 µM | [5] > 30 µM | [6] > 30 µM | [7] > 30 µM | [8] > 30 µM | [9] > 30 µM | [10] > 30 µM | [11] > 30 µM

From ChEMBL document CHEMBL3991601, “The target landscape of clinical kinase drugs” (Science, 2017)
